The target of assay [1] is T1, human JAK1 (a.a. 837-1142) (Homo sapiens, UniProt P23458).
T1 construct: human JAK1 (a.a. 837-1142); His tag (N); made in house; host or cells: insect cells (baculovirus)
Description: In vitro JAK kinase assay (HTRF, phosphorylation of a biotinylated peptide), JAK1. In kind it is biochemical. Summed up:
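His-tagged catalytic domains (JAK1 a.a. 837-1142, JAK2 a.a. 828-1132) from insect cells phosphorylate 500 nM biotinylated peptide in 50 mM Tris pH 7.8, 100 mM NaCl, 5 mM DTT; ATP at Km (90 μM JAK1, 30 μM JAK2) or 1 mM, as indicated. 1 h at RT; EDTA stop, HTRF readout; IC50s.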
(Time-resolved FRET reads energy transfer from a long-lived donor to a nearby acceptor.)

The target in another assay is T2, Jak2 (a.a. 828-1132) (Homo sapiens, UniProt O60674).
T2 construct: Jak2 (a.a. 828-1132); His tag (N); made in house; host or cells: insect cells (baculovirus)
Description: In vitro JAK kinase assay (HTRF, phosphorylation of a biotinylated peptide), JAK2, reported as JAK2/JAK1 ratio. Type of assay: biochemical.

The mark [2] stands for this setting: Assay Conditions Km (ATP 90 μM for Jak1).
Setting [3] is: Assay Conditions Km (ATP 90 μM for Jak1, 30 μM for Jak2).

The structures appear in SMILES notation. Where a name gives a salt, the structure may show the parent alone.

T2 sequence (O60674 828-1132): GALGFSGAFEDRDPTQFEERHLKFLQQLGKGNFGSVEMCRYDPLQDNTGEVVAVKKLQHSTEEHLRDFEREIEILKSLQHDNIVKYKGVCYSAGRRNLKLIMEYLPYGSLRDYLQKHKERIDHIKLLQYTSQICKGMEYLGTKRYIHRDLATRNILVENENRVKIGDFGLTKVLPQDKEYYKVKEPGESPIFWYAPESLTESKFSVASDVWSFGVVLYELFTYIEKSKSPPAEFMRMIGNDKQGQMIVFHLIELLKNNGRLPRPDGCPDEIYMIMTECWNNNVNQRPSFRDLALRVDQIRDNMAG
T1 sequence (P23458 849-1154): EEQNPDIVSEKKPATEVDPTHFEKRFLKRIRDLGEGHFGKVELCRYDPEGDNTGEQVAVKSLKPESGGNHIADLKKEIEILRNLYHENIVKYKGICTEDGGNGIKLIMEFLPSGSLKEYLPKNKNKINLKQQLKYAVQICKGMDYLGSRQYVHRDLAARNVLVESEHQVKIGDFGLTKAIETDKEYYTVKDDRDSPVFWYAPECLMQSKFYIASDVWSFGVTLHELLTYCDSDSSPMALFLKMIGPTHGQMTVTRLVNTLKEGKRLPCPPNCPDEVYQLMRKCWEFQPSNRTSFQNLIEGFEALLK

Take `N#CCC(C1CCN(c2nc3ccccc3o2)C1)n1cc(-c2ncnc3[nH]ccc23)cn1` (single isomer, unassigned) [9, Step 3b]: the IC50 (usually the concentration that inhibits the measured activity by half) in assay [1] (setting [2]) is below 50 nM. Also, the “JAK2/JAK1 IC50 ratio” value on Jak2 (a.a. 828-1132) (setting [3]) is 6.3.
For `N#CCC(C1CCN(c2nc3cccc(Br)c3o2)C1)n1cc(-c2ncnc3[nH]ccc23)cn1.O=C(O)C(F)(F)F` (single isomer, unassigned) [Example 159, 3-[1-(7-bromo-1,3-benzoxazol-2-yl)pyrrolidin-3-yl]-3-[4-(7H-pyrrolo[2,3-d]pyrimidin-4-yl)-1H-pyrazol-1-yl]propanenitrile trifluoracetate], the IC50 in assay [1] (Assay Conditions 1 mM ATP) was below 50 nM. In addition, at Jak2 (a.a. 828-1132) (Assay Conditions 1 mM ATP), the “JAK2/JAK1 IC50 ratio” value is given as 12.9.
The matching figures for `N#CCC(C1CCN(c2ncc3c(c2C#N)S(=O)(=O)CC3)C1)n1cc(-c2ncnc3[nH]ccc23)cn1` (single isomer, unassigned) [Example 172, 6-(3-{2-cyano-1-[4-(7H-pyrrolo[2,3-d]pyrimidin-4-yl)-1H-pyrazol-1-yl]ethyl}pyrrolidin-1-yl)-2,3-dihydrothieno[3,2-c]pyridine-7-carbonitrile 1,1-dioxide]: below 50 nM and 20.0.
`N#CCC(C1CCN(c2ncc3cccc(Cl)c3n2)C1)n1cc(-c2ncnc3[nH]ccc23)cn1` (stereo not drawn) [Example 44, 3-[1-(8-chloroquinazolin-2-yl)pyrrolidin-3-yl]-3-[4-(7H-pyrrolo[2,3-d]pyrimidin-4-yl)-1H-pyrazol-1-yl]propanenitrile trifluoroacetate salt] yielded a 50% inhibitory concentration (IC50) in assay [1] (setting [2]) below 50 nM. The “JAK2/JAK1 IC50 ratio” value on Jak2 (a.a. 828-1132) (setting [3]) is recorded as 3.
Molecule `N#CCC(C1CCN(c2nc3cccc(F)c3o2)C1)n1cc(-c2ncnc3[nH]ccc23)cn1` (single isomer, unassigned) [Example 21, 3-[1-(7-fluoro-1,3-benzoxazol-2-yl)pyrrolidin-3-yl]-3-[4-(7H-pyrrolo[2,3-d]pyrimidin-4-yl)-1H-pyrazol-1-yl]propanenitrile] showed an IC50 in assay [1] (Assay Conditions 1 mM ATP) below 50 nM. In addition, the “JAK2/JAK1 IC50 ratio” value at Jak2 (a.a. 828-1132) (Assay Conditions 1 mM ATP) came to 31.8.
As for `N#CC[C@@H]([C@H]1CCN(c2ccc(C#N)c(Cl)n2)C1)n1cc(-c2ncnc3[nH]ccc23)cn1` [Example 69, 2-chloro-6-((3S)-3-{(1S)-2-cyano-1-[4-(7H-pyrrolo[2,3-d]pyrimidin-4-yl)-1H-pyrazol-1-yl]ethyl}pyrrolidin-1-yl)nicotinonitrile trifluoroacetate salt], the IC50 in assay [1] (Assay Conditions 1 mM ATP) is below 50 nM. Also, at Jak2 (a.a. 828-1132) (Assay Conditions 1 mM ATP), the “JAK2/JAK1 IC50 ratio” value is recorded as 6.5.
The matching figures for `Cn1ccnc(N2CCC(C(CC#N)n3cc(-c4ncnc5[nH]ccc45)cn3)C2)c1=O` (racemic) [Example 37, ±3-[1-(4-methyl-3-oxo-3,4-dihydropyrazin-2-yl)pyrrolidin-3-yl]-3-[4-(7H-pyrrolo[2,3-d]pyrimidin-4-yl)-1H-pyrazol-1-yl]propanenitrile trifluoroacetate]: below 50 nM and above 8.7.
The matching figures for `N#CC[C@@H]([C@H]1CCN(c2scc(O)c2C#N)C1)n1cc(-c2ncnc3[nH]ccc23)cn1` [Example 76, 2-((3S)-3-{(1S)-2-cyano-1-[4-(7H-pyrrolo[2,3-d]pyrimidin-4-yl)-1H-pyrazol-1-yl]ethyl}pyrrolidin-1-yl)-4-hydroxythiophene-3-carbonitrile]: below 50 nM and 51.1.
The matching figures for `N#CC[C@@H]([C@H]1CCN(c2ncccc2C#N)C1)n1cc(-c2ncnc3[nH]ccc23)cn1` [Example 62, 2-((3S)-3-{(1S)-2-cyano-1-[4-(7H-pyrrolo[2,3-d]pyrimidin-4-yl)-1H-pyrazol-1-yl]ethyl}pyrrolidin-1-yl) nicotinonitrile trifluoroacetate salt]: below 50 nM and 7.1.
In assay [1] (Assay Conditions 1 mM ATP), `N#CC[C@@H]([C@H]1CCN(c2nccc(C(F)(F)F)c2C#N)C1)n1cc(-c2ncnc3[nH]ccc23)cn1` [Example 50, 2-((3S)-3-{(1S)-2-cyano-1-[4-(7H-pyrrolo[2,3-d]pyrimidin-4-yl)-1H-pyrazol-1-yl]ethyl}pyrrolidin-1-yl)-4-(trifluoromethyl)nicotinonitrile trifluoroacetate] yielded an IC50 below 50 nM. Besides, the “JAK2/JAK1 IC50 ratio” value at Jak2 (a.a. 828-1132) (Assay Conditions 1 mM ATP) was determined as 15.4.
The matching figures for `CSc1nc(N2CC[C@H]([C@H](CC#N)n3cc(-c4ncnc5[nH]ccc45)cn3)C2)c(F)cc1F` [Example 129, (3S)-3-{(3S)-1-[3,5-Difluoro-6-(methylthio)pyridin-2-yl]pyrrolidin-3-yl}-3-[4-(7H-pyrrolo[2,3-d]pyrimidin-4-yl)-1H-pyrazol-1-yl]propanenitrile]: below 50 nM and 5.9.
The matching figures for `N#CCC(C1CCN(c2ccc3c(n2)S(=O)(=O)CC3)C1)n1ccc(-c2ncnc3[nH]ccc23)c1` (single isomer, unassigned) [34, enantiomer 2]: below 50 nM and 13.8.
The matching figures for `N#CCC(C1CCN(c2scc(C#N)c2C#N)C1)n1ccc(-c2ncnc3[nH]ccc23)c1` (single isomer, unassigned) [81 enantiomer 1]: below 50 nM and 40.0.
In the case of `N#CC[C@@H]([C@H]1CCN(c2ccc(F)c(F)c2C#N)C1)n1cc(-c2ncnc3[nH]ccc23)cn1` [Example 60, 6-((3S)-3-{(1S)-2-cyano-1-[4-(7H-pyrrolo[2,3-d]pyrimidin-4-yl)-1H-pyrazol-1-yl]ethyl}pyrrolidin-1-yl)-2,3-difluorobenzonitrile trifluoroacetate salt], the half-maximal inhibitory concentration (IC50) in assay [1] (Assay Conditions 1 mM ATP) is below 50 nM. Moreover, on Jak2 (a.a. 828-1132) (Assay Conditions 1 mM ATP), the “JAK2/JAK1 IC50 ratio” value came out at 6.6.
For `N#CCC(C1CCN(c2nc3cccc(O)c3o2)C1)n1cc(-c2ncnc3[nH]ccc23)cn1` (single isomer, unassigned) [Example 161, 3-[1-(7-hydroxy-1,3-benzoxazol-2-yl)pyrrolidin-3-yl]-3-[4-(7H-pyrrolo[2,3-d]pyrimidin-4-yl)-1H-pyrazol-1-yl]propanenitrile] the same measures were below 50 nM and 24.7.
For `N#CC[C@@H]([C@H]1CCN(c2ccnc(C#N)c2C#N)C1)n1cc(-c2ncnc3[nH]ccc23)cn1` [Example 124, 4-((3S)-3-{(1S)-2-cyano-1-[4-(7H-pyrrolo[2,3-d]pyrimidin-4-yl)-1H-pyrazol-1-yl]ethyl}pyrrolidin-1-yl)pyridine-2,3-dicarbonitrile trifluoroacetate] the same measures were below 50 nM and above 10.5.
For `N#CCC(C1CCN(c2ccc3c(n2)S(=O)(=O)CC3)C1)n1ccc(-c2ncnc3[nH]ccc23)c1` (single isomer, unassigned) [34, enantiomer 1] the same measures were below 50 nM and 5.6.
In assay [1] (setting [2]), `N#CCC(C1CCN(c2ccnc(Cl)n2)C1)n1cc(-c2ncnc3[nH]ccc23)cn1` (single isomer, unassigned) [3, Step 2b] returned an IC50 below 50 nM. The “JAK2/JAK1 IC50 ratio” value on Jak2 (a.a. 828-1132) (setting [3]) was 8.5.
Molecule `CS(=O)(=O)c1cccc(N2CCC(C(CC#N)n3cc(-c4ncnc5[nH]ccc45)cn3)C2)n1` (single isomer, unassigned) [Example 26, 3-{1-[6-(methylsulfonyl)pyridin-2-yl]pyrrolidin-3-yl}-3-[4-(7H-pyrrolo[2,3-d]pyrimidin-4-yl)-1H-pyrazol-1-yl]propanenitrile] showed an IC50 in assay [1] (Assay Conditions 1 mM ATP) of 50 to 100 nM. Moreover, at Jak2 (a.a. 828-1132) (Assay Conditions 1 mM ATP), the “JAK2/JAK1 IC50 ratio” value is recorded as 5.2.
The matching figures for `N#CCC(C1CCN(c2nc3cncnc3o2)C1)n1cc(-c2ncnc3[nH]ccc23)cn1` (single isomer, unassigned) [Example 18, 3-(1-[1,3]oxazolo[5,4-d]pyrimidin-2-ylpyrrolidin-3-yl)-3-[4-(7H-pyrrolo[2,3-d]pyrimidin-4-yl)-1H-pyrazol-1-yl]propanenitrile]: 50 to 100 nM and 10.3.
For `N#CC[C@@H]([C@H]1CCN(c2ncnc(C(F)F)c2C#N)C1)n1cc(-c2ncnc3[nH]ccc23)cn1` [Example 110, 4-((S)-3-((S)-1-(4-(7H-pyrrolo[2,3-d]pyrimidin-4-yl)-1H-pyrazol-1-yl)-2-cyanoethyl)pyrrolidin-1-yl)-6-(difluoromethyl)pyrimidine-5-carbonitrile trifluoroacetate salt] the same measures were below 50 nM and 17.6.
In assay [1] (setting [2]), `N#CCC(C1CCN(c2nccc(Cl)n2)C1)n1cc(-c2ncnc3[nH]ccc23)cn1` (single isomer, unassigned) [Example 4b, 3-[1-(4-chloropyrimidin-2-yl)pyrrolidin-3-yl]-3-[4-(7H-pyrrolo[2,3-d]pyrimidin-4-yl)-1H-pyrazol-1-yl]propanenitrile] returned an IC50 below 50 nM. Moreover, the “JAK2/JAK1 IC50 ratio” value at Jak2 (a.a. 828-1132) (setting [3]) is on record as 3.7.
For the molecule `N#CC[C@@H]([C@H]1CCN(c2ncc(Br)s2)C1)n1cc(-c2ncnc3[nH]ccc23)cn1` [Example 47, (3S)-3-[(3S)-1-(5-bromo-1,3-thiazol-2-yl)pyrrolidin-3-yl]-3-[4-(7H-pyrrolo[2,3-d]pyrimidin-4-yl)-1H-pyrazol-1-yl]propanenitrile trifluoroacetate], in assay [1] (Assay Conditions 1 mM ATP), the IC50 was below 50 nM. Moreover, the “JAK2/JAK1 IC50 ratio” value on Jak2 (a.a. 828-1132) (Assay Conditions 1 mM ATP) amounted to 6.9.
In turn, `CS(=O)(=O)c1nc(F)c(N2CC[C@H]([C@H](CC#N)n3cc(-c4ncnc5[nH]ccc45)cn3)C2)cc1F` [Example 134, (3S)-3-{(3S)-1-[2,5-difluoro-6-(methylsulfonyl)pyridin-3-yl]pyrrolidin-3-yl}-3-[4-(7H-pyrrolo[2,3-d]pyrimidin-4-yl)-1H-pyrazol-1-yl]propanenitrile trifluoroacetate] registered an IC50 in assay [1] (Assay Conditions 1 mM ATP) below 50 nM. Further, the “JAK2/JAK1 IC50 ratio” value at Jak2 (a.a. 828-1132) (Assay Conditions 1 mM ATP) was 17.

Values taken from US8716303B2, “N-(hetero)aryl-pyrrolidine derivatives of pyrazol-4-yl-pyrrolo[2,3-d]pyrimidines and pyrrol-3-yl-pyrrolo[2,3-d]pyrimidines as janus kinase inhibitors” (Incyte Corporation, priority 2009, dated 2014).
